# Measurements from patent US20080004263A1, “Ligands of Follicle Stimulating Hormone Receptor and Methods of Use Thereof” (priority 2004, published 2008).
# pEC50: −log10 of the molar value.
# Biological target: T1, FSH receptor (Homo sapiens, UniProt P23945)
# T1 construct: expressed in transfected cells; host or cells: AV12 cells (stably transfected)
# T1 sequence (P23945 18-695): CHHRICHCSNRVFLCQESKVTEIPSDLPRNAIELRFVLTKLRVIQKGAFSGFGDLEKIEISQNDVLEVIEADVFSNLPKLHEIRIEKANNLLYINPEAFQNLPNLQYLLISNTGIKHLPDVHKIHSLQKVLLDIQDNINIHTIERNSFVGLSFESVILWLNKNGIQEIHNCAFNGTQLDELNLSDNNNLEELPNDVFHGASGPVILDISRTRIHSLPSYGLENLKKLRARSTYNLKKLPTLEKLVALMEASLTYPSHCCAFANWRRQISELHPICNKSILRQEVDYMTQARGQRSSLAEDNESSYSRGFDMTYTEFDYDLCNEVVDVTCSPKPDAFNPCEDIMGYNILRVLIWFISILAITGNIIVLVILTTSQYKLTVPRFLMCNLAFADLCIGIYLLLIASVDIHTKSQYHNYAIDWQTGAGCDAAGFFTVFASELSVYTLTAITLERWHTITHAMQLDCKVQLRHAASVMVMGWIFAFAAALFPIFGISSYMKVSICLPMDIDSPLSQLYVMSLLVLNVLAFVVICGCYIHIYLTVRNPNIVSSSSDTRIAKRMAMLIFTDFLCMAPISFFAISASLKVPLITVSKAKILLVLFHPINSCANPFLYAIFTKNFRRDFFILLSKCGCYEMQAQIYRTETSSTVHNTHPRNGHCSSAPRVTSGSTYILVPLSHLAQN
# Assay: cAMP Whole Cell assay (AlphaScreen cAMP detection) in AV12 cells stably transfected with FSH receptor
# Format: cell-based
# Settings: AV12 cells expressing FSH receptor; average of two (2) trials
# Procedure: Compounds of the invention were tested for their ability to activate an FSH receptor protein using an AlphaScreen cAMP detection kit (Perkin Elmer; Cat. No. 6760600R).
# AV12 cells stably transfected with an expression vector containing an FSH construct and cultured under conditions permissive for cell surface expression of the encoded FSH receptor were harvested from flasks via non-enzymatic means. The cells were washed in PBS and resuspended in Stimulation Buffer. Live cells were counted using a hemacytometer and Trypan blue exclusion, and the cell concentration was adjusted to 2×10^5 cells/ml. A cAMP standard curve in buffer was prepared with a high final concentration of 1 μM, and serially diluted 1:5 in buffer (10 μL/well). Candidate compounds identified as per above (if frozen, thawed at room temperature) were added to their respective wells (in a 384-well plate) at increasing concentrations (5 μL/well; 10 μM final top assay concentration). To these wells, 2,000 cells in 10 μl of Buffer were added and the mixture as well as 5 μL of cAMP Acceptor Beads in Stimulation Buffer. Following a 30 minute incubation, 5 μL of Donor Bead/Biotinylated cAMP was added to each well, followed by incubation at RT for 2 hours. Plates were read in a Perkin Elmer AlphaQuest™ plate reader per manufacturer instructions.
compound,measurement,value
"Cc1onc(-c2cccc(-c3ccc(-c4nnn[nH]4)cc3)c2)c1-c1csc(C2CCN(C(=O)Cc3cccs3)CC2)n1 [Example 38, 1-[4-(4-{5-Methyl-3-[4′-(1H-tetrazol-5-yl)-biphenyl-3-yl]-isoxazol-4-yl}-thiazol-2-yl)-piperidin-1-yl]-2-thiophen-2-yl-ethanone]",pEC50,5.96
